Structures can show the parent of a compound that is named as a salt. Where two headings read alike, the source gives them in different places.
Experiments:
XIAP BIR3 domain = XIAP BIR3 domain (Homo sapiens (Human), UniProt P98170); experiment: XIAP in vitro competitive displacement binding assay (fluorescence polarization); details: given as ranges; a range also covers PI >= approx 50% at <= the upper concentration; read-out: IC50 or PI Xiap
cIAP-1 BIR3 domain = cIAP-1 BIR3 domain (Homo sapiens (Human), UniProt Q13490); experiment: cIAP-1 in vitro competitive displacement binding assay (fluorescence polarization); details: given as ranges, read-out: IC50 or PI cIAP1
[1] = system: EVSA-T (human breast carcinoma); experiment: Anti-proliferative activity, Alamar Blue assay, EVSA-T; format: cell-based; details: for inhibition at 10 µM: read-out: EC50 or PI EVSA-T prolif (percentage inhibition)
XIAP or cIAP1 = experiment: Assays using XIAP and cIAP1 (result stated for XIAP or cIAP1); format: binding, human
[2] = AbuRPFK(5&6FAM)-amide probe (Probe B)
[3] = EVSA-T, 72 hours compound incubation, read-out: EC50 or PI EVSA-T prolif
[4] = read-out: EC50 or greater than 50% at 10 μM, EVSA-T cell line
[5] = read-out: IC50 or at least 50% inhibition of the activity at a concentration of 1 μM, against XIAP or cIAP1
[6] = read-out: IC50 or at least 50% inhibition of the activity at a concentration of 10 μM, against XIAP or cIAP1

SMILES	IC50 (XIAP BIR3 domain) [nM]	IC50 (cIAP-1 BIR3 domain; [2]) [nM]	EC50 [1, 3] [nM]	EC50 [1, 4] [nM]	IC50 (XIAP or cIAP1; [5]) [nM]	IC50 (XIAP or cIAP1; [6]) [nM]	IC50 (cIAP-1 BIR3 domain; AVPIK(5&6FAM)-amide probe (Probe A)) [nM]	inhibition at 10 µM ([1]; EVSA-T) [%]	EC50 ([1]; EVSA-T, 72 h, read-out: EC50 or PI EVSA-T prolif) [nM]	EC50 ([1]; EVSA-T, read-out: EC50 or greater than 50% at 10 μM) [nM]	IC50 (XIAP or cIAP1; read-out: IC50 or at least 50% inhibition of the activity at a concentration of 1 μM) [nM]	IC50 (XIAP or cIAP1; read-out: IC50 or at least 50% inhibition of the activity at a concentration of 10 μM) [nM]
CN[C@@H](C)C(=O)Nc1ccc2c(n1)O[C@@H](Cc1ccccc1)C(=O)N2 [Example 4, (S)—N—((S)-3-Benzyl-2-oxo-2,3-dihydro-1H-pyrido[2,3-b][1,4]oxazin-6-yl)-2-methylamino-propionamide hydrochloride]	1000 to 10000				< 1000	< 10000	10 to 1000	-13				
CN[C@@H](C)C(=O)Nc1ccc2c(n1)CN(C1CCC(C)(C)CC1)C(=O)N2c1cccc(Cl)c1 [Example 35, (S)-N-[1-(3-Chloro-phenyl)-3-(4,4-dimethyl-cyclohexyl)-2-oxo-1,2,3,4-tetrahydro-pyrido[3,2-d]pyrimidin-6-yl]-2-methylamino-propionamide hydrochloride]	10 to 1000	10 to 1000	650	< 10000	< 1000	< 10000						
CN[C@@H](C)C(=O)Nc1ccc2c(n1)CN(C(C)C(C)C)C(=O)N2c1cccc(Cl)c1 (stereo partly drawn) [Example 36, (S)—N-[1-(3-Chloro-phenyl)-3-(1,2-dimethyl-propyl)-2-oxo-1,2,3,4-tetrahydro-pyrido[3,2-d]pyrimidin-6-yl]-2-methylamino-propionamide]	10 to 1000	10 to 1000	880	< 10000	< 1000	< 10000						
CN[C@@H](C)C(=O)Nc1ccc2c(n1)CN(C(C)C1CCC1)C(=O)N2c1cccc(Cl)c1 (stereo partly drawn) [Example 37, (S)-N-[1-(3-Chloro-phenyl)-3-(1-cyclobutyl-ethyl)-2-oxo-1,2,3,4-tetrahydro-pyrido[3,2-d]pyrimidin-6-yl]-2-methylamino-propionamide hydrochloride]	10 to 1000	10 to 1000	620	< 10000	< 1000	< 10000						
CN[C@@H](C)C(=O)Nc1ccc2c(n1)CN(C1CCN(C(C)=O)CC1)C(=O)N2c1cccc(Cl)c1 [Example 38, (S)—N-[3-(1-Acetyl-piperidin-4-yl)-1-(3-chloro-phenyl)-2-oxo-1,2,3,4-tetrahydro-pyrido[3,2-d]pyrimidin-6-yl]-2-methylamino-propionamide]	1000 to 10000	10 to 1000		< 10000	< 1000	< 10000		75				
CN[C@@H](C)C(=O)Nc1ccc2c(n1)CN(CC1CCCC1)C(=O)N2c1cccc(Cl)c1 [Example 42, (S)—N-[1-(3-Chloro-phenyl)-3-cyclopentylmethyl-2-oxo-1,2,3,4-tetrahydro-pyrido[3,2-d]pyrimidin-6-yl]-2-methylamino-propionamide hydrochloride]	10 to 1000	10 to 1000			< 1000	< 10000						
CCC1(CC)Oc2nc(NC(=O)[C@H](C)N)ccc2N(c2ccc(Cl)cc2)C1=O [Example 45, (S)-2-Amino-N-[1-(4-chloro-phenyl)-3,3-diethyl-2-oxo-2,3-dihydro-1H-pyrido[2,3-b][1,4]oxazin-6-yl]-propionamide hydrochloride]	10 to 1000								2900	< 10000	< 1000	< 10000

Continued, in another order:

IC50 (XIAP BIR3 domain) [nM]	IC50 (cIAP-1 BIR3 domain; [2]) [nM]	EC50 [1, 3] [nM]	EC50 [1, 4] [nM]	IC50 (XIAP or cIAP1; [5]) [nM]	IC50 (XIAP or cIAP1; [6]) [nM]	IC50 (cIAP-1 BIR3 domain; AVPIK(5&6FAM)-amide probe (Probe A)) [nM]	SMILES	inhibition at 10 µM ([1]; EVSA-T) [%]	EC50 ([1]; EVSA-T, 72 h, read-out: EC50 or PI EVSA-T prolif) [nM]	EC50 ([1]; EVSA-T, read-out: EC50 or greater than 50% at 10 μM) [nM]	IC50 (XIAP or cIAP1; read-out: IC50 or at least 50% inhibition of the activity at a concentration of 1 μM) [nM]	IC50 (XIAP or cIAP1; read-out: IC50 or at least 50% inhibition of the activity at a concentration of 10 μM) [nM]
10 to 1000	10 to 1000	280	< 10000	< 1000	< 10000		CN[C@@H](C)C(=O)Nc1ccc2c(n1)O[C@@](C)(c1ccccc1)C(=O)N2c1ccc(Cl)cc1 [Example 3, (S)—N—[(S)-1-(4-Chloro-phenyl)-3-methyl-2-oxo-3-phenyl-2,3-dihydro-1H-pyrido[2,3-b][1,4]oxazin-6-yl]-2-methylamino-propionamide hydrochloride]					
10 to 1000	10 to 1000	120	< 10000	< 1000	< 10000		CN[C@@H](C)C(=O)Nc1ccc2c(n1)OC(C)(C)C(=O)N2c1ccc(Cl)cc1 [Example 6, (S)-N-[1-(4-Chloro-phenyl)-3,3-dimethyl-2-oxo-2,3-dihydro-1H-pyrido[2,3-b][1,4]oxazin-6-yl]-2-methylamino-propionamide hydrochloride]					
10 to 1000	10 to 1000	440	< 10000	< 1000	< 10000		CN[C@@H](C)C(=O)Nc1ccc2c(n1)OC1(CCCCC1)C(=O)N2c1ccc(Cl)cc1 [Example 7, (2S)-N-[4′-(4-Chlorophenyl)-3′-oxo-3′,4′-dihydrospiro[cyclohexane-1,2′-pyrido[2,3-b][1,4]oxazine]-7′-yl]-2-(methylamino)propanamide hydrochloride]					
10 to 1000	10 to 1000	190	< 10000	< 1000	< 10000		CN[C@@H](C)C(=O)Nc1ccc2c(n1)OC1(CCCC1)C(=O)N2c1ccc(Cl)cc1 [Example 8, (2S)-N-[4′-(4-Chlorophenyl)-3′-oxo-3′,4′-dihydrospiro[cyclopentane-1,2′-pyrido[2,3-b][1,4]oxazine]-7′-yl]-2-(methylamino)propanamide hydrochloride]					
10 to 1000	10 to 1000	120	< 10000	< 1000	< 10000		CN[C@@H](C)C(=O)Nc1ccc2c(n1)OC1(Cc3ccccc3C1)C(=O)N2c1ccc(Cl)cc1 [Example 9, (2S)-N-[4′-(4-Chlorophenyl)-3′-oxo-1,3,3′,4′-tetrahydrospiro[indene-2,2′-pyrido[2,3-b][1,4]oxazine]-7′-yl]-2-(methylamino)propanamide hydrochloride]					
10 to 1000	10 to 1000	170	< 10000	< 1000	< 10000		CN[C@@H](C)C(=O)Nc1ccc2c(n1)OC(C)(C1CCCC1)C(=O)N2c1cccc(Cl)c1 (stereo partly drawn) [Example 13, (S)-N-[1-(3-Chloro-phenyl)-3-cyclopentyl-3-methyl-2-oxo-2,3-dihydro-1H-pyrido[2,3-b][1,4]oxazin-6-yl]-2-methylamino-propionamide hydrochloride]					
10 to 1000	10 to 1000	360	< 10000	< 1000	< 10000		CN[C@@H](C)C(=O)Nc1ccc2c(n1)CN(c1cccc(Cl)c1)C(=O)N2c1cccc(Cl)c1 [Example 24, (S)—N-[1,3-Bis-(3-chloro-phenyl)-2-oxo-1,2,3,4-tetrahydro-pyrido[3,2-d]pyrimidin-6-yl]-2-methylamino-propionamide hydrochloride]					
10 to 1000	10 to 1000	2300	< 10000	< 1000	< 10000		CN[C@@H](C)C(=O)Nc1ccc2c(n1)CN(c1cc(Cl)cc(Cl)c1)C(=O)N2c1cc(Cl)cc(Cl)c1 [Example 25, (S)—N-[1,3-Bis-(3,5-dichloro-phenyl)-2-oxo-1,2,3,4-tetrahydro-pyrido[3,2-d]pyrimidin-6-yl]-2-methylamino-propionamide hydrochloride]					

From patent US9155743B2, “Bicyclic heterocycle compounds and their uses in therapy” (priority 2011, dated 2015)
